Source: patent publication US9066965B1, “Purified limonin glucoside for prevention and treatment of chronic diseases” (The United States of America, as represented by the …, priority 2012, dated 2015)

How the values were obtained:
[1] = test system: alanine amino transferase (ALT); test: Serum alanine amino transferase (CMP); type: in vivo, human; settings: 500 mg/d, 56 days
Experimental: (§1) CMP performed on serum samples at the chemistry laboratory of University of California Medical Center by using the Beckman Coulter DxC800. GGT and CKMB were determined in the EDTA plasma. GGT activity was determined by using Integra 400 Chemistry Analyzer, Roche Diagnostics. CKMB concentration was determined by using the Multiplex kits from Mesoscale Discovery (Gaithersburg, Md. 20877).
(§2) SAS PROC MIXED was used to fit the cross-over model (Littell R C, Milliken G A, Stroup W W, Wolfinger R D, Schabenberger O. SAS System for Mixed Models. Cay, N.C.: SAS Institute Inc.; 2006). Transformations were used when appropriate to stabilize the variances among the diets and periods. The fixed effects were order, diet, the interaction and the covariate; and the random effect was subjects within order. The test for order is a test for carry-over effect. […] Comparisons were made between the values at the end of placebo and LG treatments and using the baseline data as a covariate. Results are presented as means±SEM. Differences were considered statistically significant for P value<0.05.

[2] = Serum lipids and lipoproteins; type: in vivo, human
Excerpt: Serum lipids were part of the CMP performed at University of California Medical Center (UCDMC) by using the Beckman Coulter DxC800 instrument. Lipoproteins A1 and B were ascertained in EDTA plasma using a Cobas Integra 400 Plus instrument with Roche reagents (Roche Diagnostics Corp., Indianapolis, Ind.). Lipoproteins C2, C3 and E were quantified in serum using a Cobas Integra 400 Plus instrument with Kamiya reagents (Kamiya Biomedical Co., Seattle, Wash.).
(§3) Results are presented as means±SEM.

[3] = test system: alkaline phosphatase (ALP); settings: 500 mg/d, 56 days
Experimental: as §1, §2

[4] = Comprehensive metabolic panel (CMP) on serum; type: in vivo, human
Experimental: as §1, §2

[5] = Complete blood cell count (hematological parameters); type: in vivo, human; settings: End LG, 500 mg/d, 56 days, n = 10, mean ± SEM
[6] = test system: complement fraction 3 (C3); test: Serum C3 concentration (Integra 400 Plus); type: in vivo, human
Experimental: (§4) Plasma concentrations of epidermal growth factor (EGF), interleukin-13 (IL-13), interleukin-1 receptor antagonist (IL-1Ra), and tumor necrosis factor α (TNF α) were analyzed in EDTA plasma on a Sector Imager 2400 instrument using a multiplex kits from MSD (Meso-Scale Discovery, Gaithersburg, Md.). Concentrations of C reactive protein (CRP), and complement 3 and 4 (C3, C4) were analyzed in serum by using an Integra 400 Plus Chemistry Analyzer, (Roche Diagnostics Corp., Indianapolis, Ind.). Serum amyloid A (SAA), soluble intracellular adhesion molecule-1 (sICAM-1), and soluble vascular cell adhesion molecule-1 (sVCAM-1) were tested in serum on a Sector Imager 2400 instrument using a multiplex kit from MSD (Meso-Scale Discovery, Gaithersburg, Md.).
as §3

[7] = test system: creatinine kinase MB (CKMB); test: Plasma CKMB concentration (Mesoscale multiplex); type: in vivo, human; settings: EDTA plasma; End LG, 500 mg/d, 56 days, n = 10, mean ± SEM
Experimental: as §1, §2

[8] = Serum/plasma concentrations of inflammatory markers; type: in vivo, human
Experimental: as §4, §3

[9] = test system: prostate specific antigen (PSA); test: Plasma free prostate specific antigen in MAP 1.6; type: in vivo, human; settings: for decrease of plasma free PSA concentration: vs placebo, n=5
Experimental: Plasma samples prepared from blood collected in EDTA-containing tubes were stored at −80° C. until tested. The samples were thawed at room temperature, vortexed, spun at 13,000×g for 5 minutes for clarification and 100 uL aliquots were removed for MAP analysis into a master microtiter plate. Using automated pipetting, an aliquot of each sample was introduced into one of the capture microsphere multiplexes of the Human MAP 1.6. This MAP comprised of 89 antigens that included markers for oxidative stress, inflammation, immune status, T2DM, CVD, blood clotting, cancer, liver and kidney functions. All plasma samples were tested in duplicate. The mixture of sample and capture microspheres were thoroughly mixed and incubated at room temperature for 1 hour. Multiplexed cocktails of biotinylated, reporter antibodies for each multiplex were then added robotically and after thorough mixing, were incubated for an additional hour at room temperature. Multiplexes were developed using an excess of streptavidin-phycoerythrin solution which was thoroughly mixed into each multiplex and incubated for 1 hour at room temperature. The volume of each multiplexed reaction was reduced by vacuum filtration and the volume increased by dilution into matrix buffer for analysis. Analysis was performed in a Luminex 100 instrument and the resulting data stream was interpreted using proprietary data analysis software developed at Rules-Based Medicine. For each multiplex, both calibrators and controls were included on each microtiter plate. 8-point calibrators were run in the first and last column of each plate and 3-level controls were included in duplicate. Testing results were determined first for the high, medium and low controls for each multiplex to ensure proper assay performance. Unknown values for each of the analytes localized in a specific multiplex were determined using 4 and 5 parameter, weighted and non-weighted curve fitting algorithms included in the data analysis package. The intra-sample coefficient of variance (CV) for all antigens with concentrations above the lowest detectable dose (LDD) was less than 20%, and was less than 10% for more than 50% of the antigens tested.
as §3

[10] = serum, End LG, n = 10, mean ± SEM
[11] = End LG, 500 mg/d, 56 days, n = 10, mean ± SEM
[12] = serum, End LG, 500 mg/d, 56 days, n = 10, mean ± SEM
[13] = EDTA plasma, End LG, 500 mg/d, 56 days, n = 10, mean ± SEM

CC1(C)O[C@H]2CC(=O)OC[C@]23[C@H]2CC[C@@](C)([C@@H](O[C@@H]4O[C@H](CO)[C@@H](O)[C@H](O)[C@H]4O)c4ccoc4)[C@@]4(O[C@@H]4C(=O)O)[C@]2(C)C(=O)C[C@@H]13 [LG, limonin glucoside]
Alanine amino trasferase [1, 10]: 25.2 ± 5.08 U/L | decrease of serum alanine aminotransferase (ALT) activity ([1]; vs end of placebo treatment, p=0.041): 13.1% | Lipoprotein A1 [2, 11]: 142.91 ± 4.18 mg/dL | Lipoprotein B [2, 11]: 114.5 ± 6.45 mg/dL | Lipoprotein C2 [2, 11]: 6.21 ± 0.50 mg/dL | Lipoprotein C3 [2, 11]: 13.28 ± 1.05 mg/dL | Lipoprotein E [2, 11]: 4.91 ± 0.32 mg/dL | change in plasma concentrations of Apo B ([2]; Table 4): did not find any change | Cholesterol [2, 12]: 231.70 ± 8.83 mg/dL | HDL-C [2, 12]: 44.20 ± 2.59 mg/dL | LDL-C (Calc) [2, 12]: 159.10 ± 7.37 mg/dL | Non-HDL-C [2, 12]: 187.50 ± 10.63 mg/dL | Total-C:HDL-C [2, 12]: 5.47 ± 0.47 | Triglycerides [2, 12]: 142.60 ± 23.64 mg/dL | effect on serum total-, HDL-, LDL-, non-HDL-cholesterol, triglycerides, lipoproteins A1, B, C2, C3, E ([2]; vs end of placebo treatment): did not alter | Alkaline phosphatase [3, 10]: 59.5 ± 3.47 U/L | decrease of serum alkaline phosphatase (ALP) activity ([3]; vs end of placebo treatment, p=0.025): 10.1% | Albumin [4, 12]: 3.95 ± 0.05 g/dL | Aspartate amino transferase [4, 12]: 23.3 ± 2.22 U/L | CO2 [4, 12]: 29.10 ± 0.48 mEq/L | Calcium [4, 12]: 9.42 ± 0.06 mg/dL | Chloride [4, 12]: 104.80 ± 0.81 mEq/L | Creatinine [4, 12]: 0.84 ± 0.03 mg/dL | Glucose [4, 12]: 89.7 ± 2.58 mg/dL | Lactate dehydrogenase [4, 12]: 126.80 ± 8.90 U/L | Potassium [4, 12]: 4.61 ± 0.12 mEq/L | Protein [4, 12]: 6.59 ± 0.08 g/dL | Sodium [4, 12]: 140.80 ± 0.68 mEq/L | Total bilirubin [4, 12]: 0.81 ± 0.08 mg/dL | Urea [4, 12]: 11.70 ± 0.92 mg/dL | effect on circulating concentration of AST ([4]; vs end of placebo treatment): did not significantly decrease | effect on serum albumin, total protein, glucose, aspartate amino transferase, lactate dehydrogenase, calcium, potassium, sodium, chloride, CO2, creatinine, CKMB, total bilirubin, urea ([4]; vs end of placebo treatment): did not alter | Specific gravity [5]: 1.02 ± 0.00 | C3 [6, 12]: 1.18 ± 0.05 mg/mL | decrease of serum C3 concentration ([6]; vs end of placebo treatment, Integra 400 Plus, p=0.055): 4.8% | CKMB [7]: 2.60 ± 0.50 ng/mL | EGF [8, 13]: 106.02 ± 52.55 pg/mL | IL-1Ra [8, 13]: 194.93 ± 27.03 pg/mL | IL-13 [8, 13]: 2.42 ± 0.27 pg/mL | TNF a [8, 13]: 0.58 ± 0.20 pg/mL | C4 [8, 12]: 0.29 ± 0.02 mg/mL | CRP [8, 12]: 1.64 ± 0.25 µg/mL | SAA [8, 12]: 4.06 ± 0.77 µg/mL | sICAM-1 [8, 12]: 0.25 ± 0.02 µg/mL | sVCAM-1 [8, 12]: 0.41 ± 0.04 µg/mL | effect on plasma EGF, IL-13, IL-1Ra, TNF α and serum CRP, SAA, sICAM-1, sVCAM-1, C4 ([8]; vs end of placebo treatment): not altered | subjects in whom free PSA concentration was reduced ([9]; 5 men, 5 women): all men and 3 women | Prostate-Specific Antigen, Free ([9]; plasma, MAP 1.6, End LG, 500 mg/d, 56 days, n = 10, mean ± SEM): 0.31 ± 0.11 ng/mL | decrease of plasma free PSA concentration ([9]; men, p=0.059): 14.5% | decrease of plasma free PSA concentration ([9]; women, p=0.309): 22.9%
